Laboratory results from US8592564B2, “Immunoassays for lamotrigine” (Seradyn, Inc., priority 2004, dated 2013).

System: anti-lamotrigine antibody
Test: Cross-reactivity of polyclonal antibody with lamotrigine metabolites
Assay type: binding
Details: 500 μg/mL spiked into human serum
Method: A polyclonal antisera is obtained and an assay is performed in order to determine the amount of cross-reactivity of the polyclonal antibody with lamotrigine and lamotrigine metabolites. A known amount of lamotrigine is used to react with an anti-lamotrigine antibody prepared in accordance with the present invention. The known concentration of lamotrigine is used to calculate the amount of cross-reactivity between the antibody preparation and the metabolites as follows: N-methyl (29); N-oxide (30); and N-2 gluronide (31). The percent of cross-reactivity equals 100 times the observed concentration of lamotrigine in μg/mL, which is then divided by the concentration of added metabolites in μg/mL. No cross-reactivity is observed in specimens containing those metabolites. High concentrations of these compounds are spiked into human serum and tested as samples. The metabolites are assayed and compared to control serum (no lamotrigine). Cross reactivity is calculated using the following equation: […]
Also, the cross-reactivity of N-2 oxide at 500 μg/mL is less then 3%.

| Compound | cross-reactivity |
| --- | --- |
| C[n+]1nc(-c2cccc(Cl)c2Cl)c(N)nc1N [N-2 methyl] | do not have any cross-reactivity |
| Nc1nc(N)[n+]([O-])nc1-c1cccc(Cl)c1Cl [N-2 oxide] | < 3% |
